Measured values reported in the supplement of paper PMC10307832.

Tests used:
Assay in all cases: relative viability (nuclei count vs DMSO), 5 days (fraction); higher = more cells survive
[1] = compound: O=c1ncccn1[C@@H]1O[C@H](CO)[C@@H](O)[C@H]1O [Zebularine] + O=C(c1cc(Cc2n[nH]c(=O)c3ccccc23)ccc1F)N1CCN(C(=O)C2CC2)CC1 [Olaparib] (partner 8 µM)
Procedure, shortened: (§1)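 Lung cancer cell lines were seeded in 1536-well plates and dosed by pin tool the next day, with either a single drug or a fixed anchor-drug dose combined with five library-drug doses (not always all listed) spaced in √10 steps. Five days later, one step fixed the cells and stained their nuclei (final 0.05% Triton X-100, 1% formaldehyde, 1 ug/ml Hoechst), and nuclei were counted on 4× images. Relative viability is the nuclei count in treated wells divided by the count in vehicle wells, and each value is the median of duplicate plates.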

[2] = compound: O=c1ncccn1[C@@H]1O[C@H](CO)[C@@H](O)[C@H]1O [Zebularine] + Cc1cc(Nc2cc(N3CCN(C)CC3)nc(Sc3ccc(NC(=O)C4CC4)cc3)n2)n[nH]1 [Tozasertib] (partner 0.1 µM)
Procedure, shortened: as §1

[3] = compound: CC(C)CCN1c2nc(Nc3cc(F)c(O)c(F)c3)ncc2N(C)C(=O)C1C [BI-D1870] + CS(=O)(=O)N1CCN(Cc2cc3nc(-c4cccc5[nH]ncc45)nc(N4CCOCC4)c3s2)CC1 [Pictilisib] (partner 1 µM)
Procedure, shortened: as §1

[4] = compound: CC(C)CCN1c2nc(Nc3cc(F)c(O)c(F)c3)ncc2N(C)C(=O)C1C [BI-D1870] + COc1cc2c(Oc3ccc(NC(=O)C4(C(=O)Nc5ccc(F)cc5)CC4)cc3F)ccnc2cc1OCCCN1CCOCC1 [Foretinib] (partner 0.25 µM)
Procedure, shortened: as §1

Cell Line	relative viability ([1]; first compound 1 µM)	relative viability ([1]; first compound 3.162 µM)	relative viability ([1]; first compound 10 µM)	relative viability ([1]; first compound 31.62 µM)	relative viability ([1]; first compound 100 µM)	relative viability ([2]; first compound 1 µM)	relative viability ([2]; first compound 3.162 µM)	relative viability ([2]; first compound 10 µM)	relative viability ([2]; first compound 31.62 µM)	relative viability ([2]; first compound 100 µM)	relative viability ([3]; first compound 0.04 µM)	relative viability ([3]; first compound 0.1265 µM)	relative viability ([3]; first compound 0.4 µM)	relative viability ([3]; first compound 1.265 µM)	relative viability ([3]; first compound 4 µM)	relative viability ([4]; first compound 0.04 µM)	relative viability ([4]; first compound 0.1265 µM)	relative viability ([4]; first compound 0.4 µM)	relative viability ([4]; first compound 1.265 µM)	relative viability ([4]; first compound 4 µM)
H3255	0.624	0.597	0.502	0.577	0.513	0.542	0.61	0.271	0.106	0.627	0.505	0.458	0.451	0.584	0.497	0.784	0.915	0.953	1.09	0.849
NCI-H1993	1.09	0.885	0.416	0.982	0.693	0.593	0.582	0.53	0.614	0.573	0.864	0.704	0.769	0.71	0.622	0.777	0.659	0.715	0.784	0.842
NCI-H1734	0.581	0.523	0.334	0.303	0.239	0.284	0.247	0.263	0.206	0.207	0.5	0.401	0.434	0.472	0.358	0.881	0.827	0.883	0.936	0.837
HOP-62	0.169	0.35	0.257	0.163	0.16	0.503	0.396	0.212	0.154	0.167	0.606	0.745	0.726	0.554	0.669	1.27	1.03	1.07	1.06	0.924
LOU-NH91	0.906	0.891	0.704	0.775	0.469	0.7	0.641	0.68	0.704	0.384	0.413	0.503	0.504	0.587	0.44	0.979	0.897	0.876	1.01	0.817
ChaGo-K-1	0.332	0.32	0.289	0.202	0.187	0.22	0.208	0.211	0.172	0.195	0.757	0.807	0.502	0.758	0.407	1.01	0.85	0.857	1.04	0.956
NCI-H2228	0.737	0.503		0.283	0.236	0.289	0.168	0.229	0.246	0.195	0.395	0.356	0.448	0.468	0.225	1.03	0.806	0.941	0.821	0.647
PC-14	0.179	0.121	0.208	0.136	0.122	0.479	0.513	0.1	0.0922	0.0781	0.769	0.688	0.557	0.537	0.438	0.936	0.865	0.908	0.952	0.945
NCI-H1437	0.661	0.641	0.511	0.443	0.482	0.44	0.381	0.254	0.397	0.304	0.418	0.348	0.415	0.408	0.389	1.35	1.24	1.19	1.25	1.14
NCI-H460	0.433	0.405	0.22	0.162	0.133	0.61	0.499	0.529	0.193	0.0561	0.437	0.364	0.31	0.391	0.33	1.09	0.869	0.974	1.06	0.305
NCI-H1666	0.812	0.803	0.65	0.802	0.75	0.612	0.633	0.538	0.662	0.486	0.655	0.442	0.409	0.584	0.321	1.1	0.936	0.952	1.07	0.963
NCI-H1651	0.183	0.188	0.187	0.165	0.166	0.869	0.679	0.389	0.623	0.455	0.549	0.423	0.566	0.516	0.551	0.921	0.807	0.882	0.771	0.356
NCI-H1755	0.911	0.891	0.729	0.74	0.472	0.639	0.531	0.512	0.663	0.488	0.474	0.408	0.469	0.431	0.35	0.908	0.865	0.882	1.03	0.884
NCI-H661	0.856	0.708	0.56	0.943	0.688	0.338	0.346	0.381	0.361	0.396	0.377	0.44	0.36	0.505	0.313	1.02	0.989	1.04	1.03	0.969
HARA	0.901	0.491	0.926	0.647	0.437	0.105			0.0886	0.0769	0.597	0.314	0.458	0.518	0.366	0.872	0.855	0.867	0.819	1.02
NCI-H596	0.7	0.746	0.713	0.591	0.547	0.847	1.1	0.618	0.958	0.845	0.388	0.402	0.385	0.428	0.393	0.882	0.918	0.889	0.849	0.958
